Experimental data taken from ChEMBL document CHEMBL3272193, “New synthetic calcium selective ionophores. Design, synthesis, and transport properties” (J Med Chem, 1978).

Columns and labels:
Type in all cases: physicochemical
[1] = Induction of sodium transport in chloroform layer up to 7 to 11 hrs
[2] = Induction of calcium transport in chloroform layer up to 7 to 11 hrs in presence of picrate
[3] = Induction of calcium transport in chloroform layer up to 7 to 11 hrs in absence of picrate
[4] = Induction of magnesium transport in chloroform layer up to 3 hrs

SMILES | Activity [1] | Activity [2] | Activity [3] | Activity [4]
CC(CC1CCCCC1)N(C)C(=O)COCC(=O)O (centres undefined) | Not Active | Active | Active | Active
O=C(O)COCC(=O)NC12CC3CC(CC(C3)C1)C2 | Not Active |  |  | 
O=C(O)COCC(=O)N1CCC(C(c2ccccc2)c2ccccc2)CC1 | Not Active | Active | Active | Active
CC(CC1CCCCC1)N(C)C(=O)COCCOCC(=O)N(C)C(C)CC1CCCCC1 (mixture of isomers) | Not Active | Active | Active | 
COc1ccccc1CC(C)N(C)C(=O)COCCOCC(=O)N(C)C(C)Cc1ccccc1OC (mixture of isomers) | Not Active | Active | Active | Active

Now from value to compound:

Activity [1] | Activity [2] | Activity [3] | Activity [4] | SMILES
Not Active |  |  |  | O=C(COCCOCC(=O)NC12CC3CC(CC(C3)C1)C2)NC12CC3CC(CC(C3)C1)C2
Not Active |  |  |  | CN(CCc1ccccc1)C(=O)COCC(=O)O
Not Active | Active | Active |  | O=C(COCCOCC(=O)N1c2ccccc2C=Cc2ccccc21)N1c2ccccc2C=Cc2ccccc21
Not Active |  |  |  | O=C(COCCOCC(=O)NCCc1c[nH]c2ccccc12)NCCc1c[nH]c2ccccc12
Not Active |  |  |  | O=C(COCCOCC(=O)NCCc1ccccc1)NCCc1ccccc1
Not Active |  |  |  | O=C(O)COCC(=O)NCCc1ccccc1
